Among the test systems are MALME-3M melanoma; IGROV1 ovarian; PC-3 prostate; MOLT-4 leukemia; HCC-2998 colon; M14 melanoma; HS 578T breast; OVCAR-3 ovarian; HOP-92 NSCLC; COLO 205 colon; OVCAR-8 ovarian; SNB-75 CNS; A549 NSCLC; U251 CNS; HOP-62 NSCLC; SK-OV-3 ovarian.
Holding throughout (assay): NCI tumour cell line growth inhibition, 48 h

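The compound was tested at five concentrations on cells cultured in 96-well plates, with a 48-hour exposure period. Definition used: TGI = concentration required for complete inhibition of growth.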

Take `O=C(/C=C/c1ccc(Cl)cc1)Oc1ccc(/C=C2\CCCCC2=O)cc1`: the TGI in the test with MALME-3M melanoma was over 100 µM; in the test on IGROV1 ovarian it was over 100 µM; in the test on PC-3 prostate it was over 100 µM; in the test with MOLT-4 leukemia, 73.9 µM; in the test on HCC-2998 colon, over 100 µM; with M14 melanoma, over 100 µM. Moreover, the TGI in the test with HS 578T breast, in the test with OVCAR-3 ovarian, in the test with HOP-92 NSCLC, in the test with COLO 205 colon, in the test on OVCAR-8 ovarian and in the test with SNB-75 CNS was over 100 µM in each case. Besides, the TGI with A549 NSCLC, with U251 CNS and with HOP-62 NSCLC was over 100 µM each time.
In the case of `CCOc1ccc(/C(O)=C/c2nc3ccccc3nc2/C=C(\O)c2ccc(OCC)cc2)cc1`, the TGI in the test on MALME-3M melanoma, with IGROV1 ovarian, with SK-OV-3 ovarian, with PC-3 prostate, with MOLT-4 leukemia and in the test on HCC-2998 colon was over 100 µM throughout. Besides, the TGI in the test on M14 melanoma, with HS 578T breast, in the test with OVCAR-3 ovarian, with HOP-92 NSCLC, in the test with COLO 205 colon and in the test with A549 NSCLC was over 100 µM each time. In addition, the TGI with U251 CNS and with HOP-62 NSCLC was over 100 µM in each case.
With `Cn1c(=O)cc(NCc2ccc(Cl)cc2)[nH]c1=O`, the TGI in the test on MALME-3M melanoma, with IGROV1 ovarian, with SK-OV-3 ovarian, with PC-3 prostate, in the test on HCC-2998 colon and in the test on M14 melanoma was over 100 µM each time. The TGI was 61.3 µM in the test with HS 578T breast; over 100 µM in the test on OVCAR-3 ovarian; 45 µM in the test with HOP-92 NSCLC; over 100 µM in the test with COLO 205 colon; over 100 µM in the test with OVCAR-8 ovarian; 84.5 µM in the test with SNB-75 CNS. Besides, the TGI was over 100 µM in the test on A549 NSCLC, over 100 µM with U251 CNS and 77.4 µM with HOP-62 NSCLC.
On to `CC1OC(OC2C(O[C@H]3CC[C@@]4(C)[C@@H](CC[C@@H]5[C@@H]4CC[C@]4(C)[C@@H]6[C@H](C[C@@H]54)O[C@]4(CC[C@@H](C)CO4)[C@H]6C)C3)OC(CO)C(OC3OC(CO)C(O)C(OC4OCC(O)C(O)C4O)C3OC3OCC(O)C(O)C3O)C2O)C(O)C(O)C1O` (some centres not stated), for which the TGI stood at 2.63 µM in the test on MALME-3M melanoma; 2.73 µM with IGROV1 ovarian; 3.44 µM in the test on SK-OV-3 ovarian; 1.8 µM with PC-3 prostate; 3.01 µM in the test with HCC-2998 colon; 0.963 µM in the test on M14 melanoma. Further, the TGI was 2.74 µM in the test on HS 578T breast; 3.13 µM in the test with OVCAR-3 ovarian; 3.11 µM with HOP-92 NSCLC; 1.35 µM in the test with COLO 205 colon; 3.25 µM in the test on OVCAR-8 ovarian; 2.86 µM with SNB-75 CNS. The TGI is 1.05 µM in the test with A549 NSCLC, 1.79 µM in the test with U251 CNS and 2.03 µM in the test with HOP-62 NSCLC.
`CC1=C2c3c(C)ccc4ccc(C)c(c34)C2(O)C(C)C1=O` (configuration not stated): the TGI with IGROV1 ovarian, in the test on SK-OV-3 ovarian, in the test with PC-3 prostate, in the test on MOLT-4 leukemia, in the test with HCC-2998 colon and with M14 melanoma was over 100 µM throughout. Besides, the TGI was over 100 µM in the test on HS 578T breast; over 100 µM in the test on OVCAR-3 ovarian; over 100 µM with HOP-92 NSCLC; 72.2 µM in the test with COLO 205 colon; 49.4 µM in the test on OVCAR-8 ovarian; over 100 µM with SNB-75 CNS. Besides, the TGI in the test with A549 NSCLC, with U251 CNS and with HOP-62 NSCLC was over 100 µM in each case.
For the molecule `Cc1ccc(S(=O)(=O)NN=C2CCCCCCCCCCC2)cc1`, the TGI in the test on MALME-3M melanoma, with IGROV1 ovarian, in the test on SK-OV-3 ovarian, in the test on PC-3 prostate, in the test with MOLT-4 leukemia and in the test with HCC-2998 colon was over 100 µM each time. In addition, the TGI in the test on M14 melanoma, with HS 578T breast, in the test with OVCAR-3 ovarian, in the test on HOP-92 NSCLC, in the test with COLO 205 colon and in the test on OVCAR-8 ovarian was over 100 µM each time. Also, the TGI with A549 NSCLC, in the test with U251 CNS and in the test with HOP-62 NSCLC was over 100 µM each time.
As to `COC(=O)C1(Cc2ccc3c(c2)CCC3)Cc2ccc3c(c2C1O)CCC3` (configuration not stated), the TGI was 27.3 µM in the test with MALME-3M melanoma; 51.8 µM in the test on SK-OV-3 ovarian; 32.3 µM in the test on PC-3 prostate; over 100 µM in the test on MOLT-4 leukemia; 30.9 µM in the test on HCC-2998 colon; 42.1 µM in the test with HS 578T breast. In addition, the TGI in the test on OVCAR-3 ovarian is 27.7 µM; in the test with HOP-92 NSCLC it was 21.9 µM; in the test with COLO 205 colon it was 25.6 µM; with OVCAR-8 ovarian it was 39.1 µM; with SNB-75 CNS, over 100 µM; with A549 NSCLC it was 37.3 µM. The TGI with U251 CNS came to 30.6 µM; in the test on HOP-62 NSCLC it was 28 µM.
`CN(C)c1ccc(/C=C(\C#N)C(N)=C(C#N)C#N)cc1`: the TGI in the test with MALME-3M melanoma, with IGROV1 ovarian, in the test on SK-OV-3 ovarian, with PC-3 prostate, with HCC-2998 colon and in the test on M14 melanoma was over 100 µM in each case. The TGI with HS 578T breast, with OVCAR-3 ovarian, with HOP-92 NSCLC, in the test with COLO 205 colon, in the test with OVCAR-8 ovarian and in the test with A549 NSCLC was over 100 µM throughout. The TGI in the test with U251 CNS and with HOP-62 NSCLC was over 100 µM each time.
Turning to `O=C(CC(=O)N1N=C(N2CCCCC2)CC1c1ccccc1)Nc1ccc(Cl)cc1` (configuration not stated), the TGI with MALME-3M melanoma, with IGROV1 ovarian, in the test on PC-3 prostate, with MOLT-4 leukemia, in the test on HCC-2998 colon and in the test with M14 melanoma was over 100 µM each time. Further, the TGI in the test on HS 578T breast, in the test with OVCAR-3 ovarian, in the test with HOP-92 NSCLC, with COLO 205 colon, with OVCAR-8 ovarian and in the test with SNB-75 CNS was over 100 µM throughout. In addition, the TGI in the test on A549 NSCLC, with U251 CNS and in the test with HOP-62 NSCLC was over 100 µM throughout.

The values above are taken from PubChem BioAssay (NCI).
